Here are results for 16 molecules from patent US20060241172A1, “Benzodioxane and benzodioxolane derivatives and uses thereof” (Wyeth, priority 2005, published 2006).

For data set [1], the target named is T1, human 5-HT2C receptor (Homo sapiens, UniProt P28335).
T1 sequence (P28335 33-458): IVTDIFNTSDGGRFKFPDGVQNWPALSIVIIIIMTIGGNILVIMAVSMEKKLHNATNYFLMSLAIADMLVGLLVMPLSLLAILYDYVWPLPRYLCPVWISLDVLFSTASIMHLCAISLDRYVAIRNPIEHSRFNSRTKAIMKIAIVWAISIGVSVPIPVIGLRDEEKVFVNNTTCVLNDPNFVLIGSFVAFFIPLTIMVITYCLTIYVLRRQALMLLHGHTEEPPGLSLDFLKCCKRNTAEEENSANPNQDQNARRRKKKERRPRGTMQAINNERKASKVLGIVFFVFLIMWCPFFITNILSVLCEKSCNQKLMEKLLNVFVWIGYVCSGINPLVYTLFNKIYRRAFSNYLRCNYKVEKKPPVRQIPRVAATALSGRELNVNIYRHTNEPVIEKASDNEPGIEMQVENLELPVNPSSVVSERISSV
Kind of data set: 5-HT2C receptor-stimulated calcium mobilization (FLIPR) in CHO cells. To be noted: for Emax: CHO, read-out: 5-HT2C Function EMax (%). It is filed as cell-based. Background: Calcium assays in cells follow changes in intracellular calcium, usually with a dye or a luminescent sensor.

SMILES strings stand for the structures. Structures can show the parent of a compound that is named as a salt. Where two headings read alike, the source gives them in different places. Bounds are passed on as bounds.

As usually defined, the melting point is the temperature of the solid-liquid transition. In general, Emax refers to the greatest response seen or fitted, relative to the assay's reference. A word on the EC50: it is the concentration at which the effect is half-maximal.

On to `NCC1COc2cccc(-c3ccccc3Cl)c2O1` (stereo not shown) (as salt: fumarate) [Compound I-1, {[8-(2-Chlorophenyl)-2,3-dihydro-1,4-benzodioxin-2-yl]methyl}amine], for which the melting point was 210 to 211 °C.
Same read-out and setting: the figure for `NCC1COc2cccc(-c3ccccc3F)c2O1` (stereo not shown) (as salt: fumarate) [Compound I-2, {[8-(2-Fluorophenyl)-2,3-dihydro-1,4-benzodioxin-2-yl]methyl}amine] is 188 to 190 °C.
On the same count and under the same terms, the figure for `Cc1ccccc1-c1cccc2c1OC(CN)CO2` (stereo not shown) (as salt: fumarate) [Compound I-3, {[8-(2-Methylphenyl)-2,3-dihydro-1,4-benzodioxin-2-yl]methyl}amine] is 201 to 202 °C; for `NCC1COc2cccc(-c3ccccc3C(F)(F)F)c2O1` (stereo not shown) (as salt: fumarate) [Compound I-4, ({8-[2-(Trifluoromethyl)phenyl]-2,3-dihydro-1,4-benzodioxin-2-yl}methyl)amine] it is 208 to 209 °C; for `COc1ccccc1-c1cccc2c1OC(CN)CO2` (stereo not shown) (as salt: fumarate) [Compound I-5, {[8-(2-Methoxyphenyl)-2,3-dihydro-1,4-benzodioxin-2-yl]methyl}amine] it is 186 to 187 °C.
The same measure, in the same setting: the figure for `NCC1COc2cccc(-c3cccc(Cl)c3Cl)c2O1` (stereo not shown) (as salt: fumarate) [Compound I-6, {[8-(2,3-Dichlorophenyl)-2,3-dihydro-1,4-benzodioxin-2-yl]methyl}amine] is 211 to 212 °C; for `NCC1COc2cccc(-c3ccc(Cl)cc3Cl)c2O1` (stereo not shown) (as salt: fumarate) [Compound I-7, {[8-(2,4-Dichlorophenyl)-2,3-dihydro-1,4-benzodioxin-2-yl]methyl}amine] it is 192 to 193 °C.
For `NCC1COc2cccc(-c3cc(Cl)ccc3Cl)c2O1` (stereo not shown) (as salt: fumarate) [Compound I-8, {[8-(2,5-Dichlorophenyl)-2,3-dihydro-1,4-benzodioxin-2-yl]methyl}amine], the melting point was in the range of 206 to 207 °C.
`CNCC1COc2cccc(-c3ccccc3C)c2O1` (stereo not shown) [Compound I-17, N-Methyl-N-{[8-(2-methylphenyl)-2,3-dihydro-1,4-benzodioxin-2-yl]methyl}amine]: the Emax in data set [1] worked out at 60%. Moreover, in data set [1] (read-out: 5-HT2C Function EC50), the EC50 was less than 100 nM.
`CNCC1COc2cccc(-c3cccc(Cl)c3Cl)c2O1` (stereo not shown) [Compound I-22, {[8-(2,3-Dichlorophenyl)-2,3-dihydro-1,4-benzodioxin-2-yl]methyl}methylamine]: the Emax in data set [1] stood at 40%. For the same molecule, the EC50 in data set [1] (read-out: 5-HT2C Function EC50) is less than 100 nM.
For `CNCC1COc2cccc(-c3cccc(C)c3C)c2O1` (stereo not shown) [Compound I-25, {[8-(2,3-Dimethylphenyl)-2,3-dihydro-1,4-benzodioxin-2-yl]methyl}methylamine], in that order: 30% and greater than 500 nM.
As to `CNCC1COc2cccc(-c3cc(C)ccc3C)c2O1` (stereo not shown) [Compound I-26, {[8-(2,5-Dimethylphenyl)-2,3-dihydro-1,4-benzodioxin-2-yl]methyl}methylamine], in data set [1], the Emax came out at 50%. Also, in data set [1] (read-out: 5-HT2C Function EC50), the concentration for a half-maximal effect (EC50) is less than 100 nM.
On the same counts, the results for `CNCC1COc2cccc(-c3cccc(F)c3F)c2O1` (stereo not shown) [Compound I-27, {[8-(2,3-Difluorophenyl)-2,3-dihydro-1,4-benzodioxin-2-yl]methyl}methylamine] are 20% and 100 to 500 nM.
For `CNCC1COc2cccc(-c3ccc(F)cc3F)c2O1` (stereo not shown) [Compound I-28, {[8-(2,4-Difluorophenyl)-2,3-dihydro-1,4-benzodioxin-2-yl]methyl}methylamine], in that order: 30% and greater than 500 nM.
Turning to `CNCC1COc2cccc(-c3cc(F)ccc3F)c2O1` (stereo not shown) [Compound I-29, {[8-(2,5-Difluorophenyl)-2,3-dihydro-1,4-benzodioxin-2-yl]methyl}methylamine], the concentration giving a half-maximal response (EC50) in data set [1] (read-out: 5-HT2C Function EC50) is greater than 500 nM.
Regarding `Cc1cc2c(cc1Cl)N(C(=O)Nc1ccc(Oc3cccnc3C)nc1)CC2` [SB242084, reference compound], the EC50 in data set [1] (reference compounds, read-out: EC50) is 0.01 nM.
